In patent publication US10519177B2, “Heterocyclic compounds and uses thereof” (Plexxikon Inc., priority 2013, dated 2019):
Like-named read-outs stand apart in the source and are kept apart here.

Assays:
[1] = tested on: MV-4-11 cells; test: Oncology cell growth assay MV-4-11 (CellTiter Glo); type: cell-based
Outline: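 Growth read by CellTiter Glo luminescence after 72 h compound treatment of MLL-AF4-bearing MV-4-11 cells (3000/well). Titration: 8 points, 1:3 steps, maximum 10 μM, 0.2% DMSO final. Data normalized to DMSO wells, four-parameter fit gives pIC50.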

[2] = target: BRD4-BD12 (1-477) (Homo sapiens (Human), UniProt O60885); test: Alphascreen binding assay BRD4-BD12; settings: BRD4(1 2) H4; read-out: Biochemical activity (IC50 μM) BRD4(1 2) H4
Outline: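 In this competition format, compounds displace a biotinylated tetra-acetyl H4 peptide from E. coli-expressed human BRD4 bromodomain constructs captured on nickel chelate beads. The reaction runs at pH 7.5 with 2 mM DTT and detergent for 1 h at room temperature before a 30 min bead step.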

[3] = Homo sapiens, MV4-11, 72 h; MV-4-11, 3d growth; read-out: Cell activity (IC50 μM) MV-4-11 3d-Growth

SMILES	IC50 [1, 3] [µM]	IC50 [2] [µM]	IC50 ([1]; Homo sapiens, MV4-11, 72 h, read-out: Cell activity (IC50 μM) MV-4-11 3d-Growth) [µM]	IC50 ([1]; Homo sapiens, MV4-11, 72 h; read-out: Cell activity (IC50 μM) MV-4-11 3d-Growth) [µM]
COC(=O)c1ccc(-c2cn([C@@H](C)c3ccccn3)c3cc(-c4c(C)noc4C)cnc23)s1 [P-1006, methyl 5-[6-(3,5-dimethylisoxazol-4-yl)-1-[(1S)-1-(2-pyridyl)ethyl]pyrrolo[3,2-b]pyridin-3-yl]thiophene-2-carboxylate]	< 1	< 1	–	–
COC(=O)c1ccc(-c2cn(Cc3ccccc3)c3cc(-c4c(C)noc4C)cnc23)cc1 [P-0919, methyl 4-[1-benzyl-6-(3,5-dimethylisoxazol-4-yl)pyrrolo[3,2-b]pyridin-3-yl]benzoate]	< 1	< 1	–	–
Cc1noc(C)c1-c1cnc2c(-c3ccc(C(=O)O)cc3)cn(Cc3ccccc3C#N)c2c1 [P-0923, 4-[1-[(2-cyanophenyl)methyl]-6-(3,5-dimethylisoxazol-4-yl)pyrrolo[3,2-b]pyridin-3-yl]benzoic acid]	< 1	< 1	–	–
Cc1noc(C)c1-c1cnc2c(-c3cnn(CC(F)(F)F)c3)cn(CC3(C)CCOCC3)c2c1 [P-0971, 3,5-dimethyl-4-[1-[(4-methyltetrahydropyran-4-yl)methyl]-3-[1-(2,2,2-trifluoroethyl)pyrazol-4-yl]pyrrolo[3,2-b]pyridin-6-yl]isoxazole]	< 1	< 1	–	–
Cc1cc(-c2cn(C(c3ccccn3)C3CCCC3)c3cc(-c4c(C)noc4C)cnc23)ccc1C(=O)O (stereo not drawn) [P-1038, 4-[1-[cyclopentyl(2-pyridyl)methyl]-6-(3,5-dimethylisoxazol-4-yl)pyrrolo[3,2-b]pyridin-3-yl]-2-methyl-benzoic acid]	< 1	< 1	–	–
Cc1noc(C)c1-c1cnc2c(-c3ccc(C#N)nc3)cn(CC3(C)CCOCC3)c2c1 [P-0944, 5-[6-(3,5-dimethylisoxazol-4-yl)-1-[(4-methyltetrahydropyran-4-yl)methyl]pyrrolo[3,2-b]pyridin-3-yl]pyridine-2-carbonitrile]	< 1	< 1	–	–
Cc1ccc(-c2cn(C(c3ccccc3)c3ccccn3)c3cc(-c4c(C)noc4C)cnc23)cc1 (stereo not drawn) [P-0901, 3,5-dimethyl-4-[1-[phenyl(2-pyridyl)methyl]-3-(p-tolyl)pyrrolo[3,2-b]pyridin-6-yl]isoxazole]	< 1	< 1	–	–
Cc1noc(C)c1-c1cnc2c(-c3ccc(P(=O)(O)O)cc3)cn(C(C)c3ccccc3)c2c1 (stereo not drawn) [P-0928, [4-[6-(3,5-dimethylisoxazol-4-yl)-1-(1-phenylethyl)pyrrolo[3,2-b]pyridin-3-yl]phenyl]phosphonic acid]	1 to 10	< 1	–	–
COc1cc(-c2cn(C(c3ccccn3)C3CCCC3)c3cc(-c4c(C)noc4C)cnc23)ccc1C(=O)O (stereo not drawn) [P-1048, 4-[1-[cyclopentyl(2-pyridyl)methyl]-6-(3,5-dimethylisoxazol-4-yl)pyrrolo[3,2-b]pyridin-3-yl]-2-methoxy-benzoic acid]	< 1	< 1	–	–
COC(=O)c1ccc(-n2cc(P(=O)(c3ccccc3)c3ccccc3)c3cc(-c4c(C)noc4C)cnc32)cc1 [P-0950, methyl 4-[5-(3,5-dimethylisoxazol-4-yl)-3-diphenylphosphoryl-pyrrolo[2,3-b]pyridin-1-yl]benzoate]	< 1	< 1	–	–
Cc1ccc(-c2cn(C(c3ccccc3)c3ccccn3)c3cc(-c4c(C)noc4C)ccc23)cn1 (stereo not drawn) [P-1041, 3,5-dimethyl-4-[3-(6-methyl-3-pyridyl)-1-[phenyl(2-pyridyl)methyl]indol-6-yl]isoxazole]	< 1	< 1	–	–
COC(=O)c1ccc(-c2cn(Cc3cccc(C)n3)c3cc(-c4c(C)noc4C)cnc23)cc1OC [P-0939, methyl 4-[6-(3,5-dimethylisoxazol-4-yl)-1-[(6-methyl-2-pyridyl)methyl]pyrrolo[3,2-b]pyridin-3-yl]-2-methoxy-benzoate]	< 1	< 1	–	–
CNC(=O)c1ccc(-c2cn([C@@H](C)c3ccccn3)c3cc(-c4c(C)noc4C)cnc23)cc1 [P-0977, 4-[6-(3,5-dimethylisoxazol-4-yl)-1-[(1S)-1-(2-pyridyl)ethyl]pyrrolo[3,2-b]pyridin-3-yl]-N-methyl-benzamide]	< 1	< 1	–	–
Cc1noc(C)c1-c1ccc2c(I)cn(C(c3ccccc3)c3ccccn3)c2c1 (stereo not drawn) [P-0991, 4-[3-iodo-1-[phenyl(2-pyridyl)methyl]indol-6-yl]-3,5-dimethyl-isoxazole]	< 1	< 1	–	–
CCOCc1ccc(-c2cn(CC3CCC(F)(F)CC3)c3cc(-c4c(C)noc4C)cnc23)cc1 [P-0909, 4-[1-[(4,4-difluorocyclohexyl)methyl]-3-[4-(ethoxymethyl)phenyl]pyrrolo[3,2-b]pyridin-6-yl]-3,5-dimethyl-isoxazole]	< 1	< 1	–	–
CCOP(=O)(OCC)c1ccc(-c2cn(C(C)c3ccccc3)c3cc(-c4c(C)noc4C)cnc23)cc1 (stereo not drawn) [P-0927, 4-[3-(4-diethoxyphosphorylphenyl)-1-(1-phenylethyl)pyrrolo[3,2-b]pyridin-6-yl]-3,5-dimethyl-isoxazole]	–	< 1	< 1	–
COc1cc(-c2cn(Cc3cccc(C)n3)c3cc(-c4c(C)noc4C)cnc23)ccc1C(=O)O [P-0941, 4-[6-(3,5-dimethylisoxazol-4-yl)-1-[(6-methyl-2-pyridyl)methyl]pyrrolo[3,2-b]pyridin-3-yl]-2-methoxy-benzoic acid]	< 1	< 1	–	–
CNC(=O)c1ccc(-c2cn(CC3(F)CCC(F)(F)CC3)c3cc(-c4c(C)noc4C)cnc23)cn1 [P-0380, 5-[6-(3,5-dimethylisoxazol-4-yl)-1-[(1,4,4-trifluorocyclohexyl)methyl]pyrrolo[3,2-b]pyridin-3-yl]-N-methyl-pyridine-2-carboxamide]	–	< 1	–	< 1
CC(=O)Nc1ccc(-c2cn([C@@H](C)c3ccccn3)c3cc(-c4c(C)noc4C)cnc23)cc1 [P-0984, N-[4-[6-(3,5-dimethylisoxazol-4-yl)-1-[(1S)-1-(2-pyridyl)ethyl]pyrrolo[3,2-b]pyridin-3-yl]phenyl]acetamide]	< 1	< 1	–	–
CC[C@@H](c1ccccn1)n1cc(-c2ccc(C(=O)O)cc2)c2ncc(-c3c(C)noc3C)cc21 [P-0967, 4-[6-(3,5-dimethylisoxazol-4-yl)-1-[(1S)-1-(2-pyridyl)propyl]pyrrolo[3,2-b]pyridin-3-yl]benzoic acid]	< 1	< 1	–	–
Cc1noc(C)c1-c1cnc2c(I)cn([C@@H](c3ccccn3)C3CC3)c2c1 [P-0985, 4-[1-[(R)-cyclopropyl(2-pyridyl)methyl]-3-iodo-pyrrolo[3,2-b]pyridin-6-yl]-3,5-dimethyl-isoxazole]	< 1	< 1	–	–
Cc1noc(C)c1-c1cnc2c(-c3ccc(CC(=O)O)cc3)cn(C(c3ccccn3)C3CCCC3)c2c1 (stereo not drawn) [P-0996, 2-[4-[1-[cyclopentyl(2-pyridyl)methyl]-6-(3,5-dimethylisoxazol-4-yl)pyrrolo[3,2-b]pyridin-3-yl]phenyl]acetic acid]	< 1	< 1	–	–
Cc1noc(C)c1-c1cnc2c(I)cn(C(c3ccccn3)C3CCCC3)c2c1 (stereo not drawn) [P-0997, 4-[1-[cyclopentyl(2-pyridyl)methyl]-3-iodo-pyrrolo[3,2-b]pyridin-6-yl]-3,5-dimethyl-isoxazole]	< 1	< 1	–	–
Cc1noc(C)c1-c1cnc2c(-c3ccc(C(=O)O)cc3)cn(Cc3ncccc3F)c2c1 [P-0949, 4-[6-(3,5-dimethylisoxazol-4-yl)-1-[(3-fluoro-2-pyridyl)methyl]pyrrolo[3,2-b]pyridin-3-yl]benzoic acid]	< 1	< 1	–	–
Cc1noc(C)c1-c1cnc2c(-c3ccc(CC(=O)O)cc3)cn(C(c3ccccc3)c3ccccn3)c2c1 (stereo not drawn) [P-0903, 2-[4-[6-(3,5-dimethylisoxazol-4-yl)-1-[phenyl(2-pyridyl)methyl]pyrrolo[3,2-b]pyridin-3-yl]phenyl]acetic acid]	< 1	< 1	–	–
Cc1ncc(Cn2cc(-c3ccc(C(=O)O)cc3)c3ncc(-c4c(C)noc4C)cc32)s1 [P-0958, 4-[6-(3,5-dimethylisoxazol-4-yl)-1-[(2-methylthiazol-5-yl)methyl]pyrrolo[3,2-b]pyridin-3-yl]benzoic acid]	< 1	< 1	–	–
CC[C@@H](c1ccccn1)n1cc(-c2ccc(C(=O)O)cc2Cl)c2ncc(-c3c(C)noc3C)cc21 [P-1029, 3-chloro-4-[6-(3,5-dimethylisoxazol-4-yl)-1-[(1S)-1-(2-pyridyl)propyl]pyrrolo[3,2-b]pyridin-3-yl]benzoic acid]	< 1	< 1	–	–
Cc1noc(C)c1-c1ccc2c(-c3ccc(C(=O)O)cc3)cn(C(c3ccccc3)c3ccccn3)c2c1 (stereo not drawn) [P-0992, 4-[6-(3,5-dimethylisoxazol-4-yl)-1-[phenyl(2-pyridyl)methyl]indol-3-yl]benzoic acid]	< 1	< 1	–	–
Cc1noc(C)c1-c1cnc2c(-c3csc(C(=O)O)c3)cn([C@@H](C)c3ccccn3)c2c1 [P-1005, 4-[6-(3,5-dimethylisoxazol-4-yl)-1-[(1S)-1-(2-pyridyl)ethyl]pyrrolo[3,2-b]pyridin-3-yl]thiophene-2-carboxylic acid]	1 to 10	< 1	–	–
CC[C@@H](c1ccccn1)n1cc(-c2ccc(C(=O)O)c(F)c2)c2ncc(-c3c(C)noc3C)cc21 [P-1022, 4-[6-(3,5-dimethylisoxazol-4-yl)-1-[(1S)-1-(2-pyridyl)propyl]pyrrolo[3,2-b]pyridin-3-yl]-2-fluoro-benzoic acid]	< 1	< 1	–	–
